The source of these data is patent publication US20190136302A1, “METHODS FOR DETECTING OLIGONUCLEOTIDES IN A SAMPLE” (THE REGENTS OF THE UNIVERSITY OF CALIFORNIA, priority 2016, published 2019).

One data set concerns Capture PRLR SMO oligo. The data set can be described thus: ELOSA competition with PRLR SMO capture oligonucleotide and HRP-PRLR SMO. Conditions: for hybridization to Capture PRLR SMO / displacement of HRP-PRLR SMO (absorbance): PRLR SMO capture oligonucleotide at increasing concentrations, mouse sequences. It is filed as binding, mouse. As for the experimental part:
The capture reagent was synthesized using a sequence antisense to the test oligonucleotide, along with an amino-terminus and a 12 carbon aliphatic spacer. The amino-terminus allows binding to the wells of a 96-well, polystyrene DNA-binding plate and the spacer minimizes steric hindrance during hybridization of the test oligonucleotides. The capture reagent (2 picomoles/well) was incubated in 100 μl 0.05M phosphate (pH 8.5) —1 mM EDTA at 4° C. for 24 h or longer.
(§1) After washing (3 times with 0.05M TrisHCl (pH 8)—1 mM EDTA), the plate was blocked to reduce non-specific binding (200 μl 3% bovine serum albumin—0.05M TrisHCl (pH 8)—1 mM EDTA at 37° C. for 4 h).
After washing 3 times, the test oligo and a constant concentration of horseradish peroxidase-labeled oligonucleotide (i.e., the competition oligonucleotide with a sequence the same as test oligo) was incubated with the capture reagent. The amount of competition oligonucleotide hybridized to the capture reagent is inversely proportional to the total amount of test oligonucleotide present. Incubations were in a total final volume of 100 μl in 0.05M TrisHCl (pH 7.5)—1 mM EDTA, with Test oligo (variable doses up to 1 pmole), constant HRP-Oligo (0.5-1 pmole), and a total serum volume of 10 to 25 μl. Incubations were at 37° C. for 15 h.
After washing 3 times with TBST, the competition oligonucleotide bound to the capture reagent was measured using 100 μl 0.1 mg/ml TMB—1% hydrogen peroxide. After color development, the reaction was stopped with 50 μl 1N H2SO4, and the amount of colored product was measured spectrophotometrically at A450.
For clarity, the PRLR SMO vivo-morpholino is referred to as Antimaia to distinguish it from the oligonucleotides being used for competition or capture, which are called HRP-PRLR SMO and capture PRLR SMO, respectively. […] The methods used for these experiments are described in Example 1.

The test system of data set [1] is Capture Control SMO oligo. Description: ELOSA competition with Control SMO capture oligonucleotide and HRP-Control SMO. It is filed as binding. As to conditions: test oligo 5 pmoles; HRP-Control SMO 1 pmole; Capture Control SMO 5 pmoles. The method, then: The capture reagent was synthesized using a sequence antisense to the test oligonucleotide, along with an amino-terminus and a 12 carbon aliphatic spacer. The amino-terminus allows binding to the wells of a 96-well, polystyrene DNA-binding plate and the spacer minimizes steric hindrance during hybridization of the test oligonucleotides. […]
as §1
After washing 3 times, the test oligo and a constant concentration of horseradish peroxidase-labeled oligonucleotide (i.e., the competition oligonucleotide with a sequence the same as test oligo) was incubated with the capture reagent. The amount of competition oligonucleotide hybridized to the capture reagent is inversely proportional to the total amount of test oligonucleotide present. […] Incubations were at 37° C. for 15 h.
After washing 3 times with TBST, the competition oligonucleotide bound to the capture reagent was measured using 100 μl 0.1 mg/ml TMB—1% hydrogen peroxide. After color development, the reaction was stopped with 50 μl 1N H2SO4, and the amount of colored product was measured spectrophotometrically at A450. […]

In data set [2] the test system is orthotopic models of breast cancer. Conditions: cited from earlier work.
For data set [3], the system named is prolactin receptor (PRLR). As to conditions: treatment with PRLR SMO; cited from earlier work.

On to “5′-AAAAAAGACGAGATTCGATCGGAGTAAAA-3′ (SEQ ID NO: 1) (all phosphorodiamidate morpholino (PMO); vivo-morpholino: octaguanidine derivatization attached, position not given here) [Control SMO, reference compound]”, for which, in the data set on Capture PRLR SMO oligo, the “hybridization to Capture PRLR SMO / displacement of HRP-PRLR SMO (absorbance)” value is recorded as “did not hybridize”. For the same substance, in data set [1], the “competition with HRP-Control SMO for binding to the Capture Control SMO” value was “competed”.

In the case of “5′-AAAAAGCCCTTCTATTGAAACACAGATACAAAA-3′ (SEQ ID NO: 4) (all phosphorodiamidate morpholino (PMO); vivo-morpholino: octaguanidine derivatization attached, position not given here; listed as Mus sp.) [Antimaia, vivo-morpholino splice-modulating oligomer for the prolactin receptor, phosphorodiamidate morpholino backbone and octaguanidine derivatizations]”, the “sensitivity of the assay” value with Capture PRLR SMO oligo (Capture PRLR SMO 2 pmoles, HRP-PRLR-SMO 0.5 pmole, presence of serum) turned out to be 0.25 pmol. The “hybridization to Capture PRLR SMO / displacement of HRP-PRLR SMO (absorbance)” value in the data set on Capture PRLR SMO oligo is “displaced HRP-PRLR SMO”. The “competition easily detected above” value in the data set on Capture PRLR SMO oligo (capture reagent 2 pmoles, HRP-PRLR SMO in the 0.5 pmole range, presence of serum) is “above 0.2 pmoles”. The “competition with HRP-Control SMO for binding to the Capture Control SMO” value in data set [1] is reported as “essentially no effect”. In addition, the tolerability entry in data set [2] (in vivo) was “well-tolerated”. In addition, in data set [2] (two orthotopic models of breast cancer), the “reduction in metastatic spread” value is on record as 80%. In addition, the “effect on PRLR splice forms” value in data set [3] was “loss of the growth-promoting PRLR without loss of the growth-inhibiting splice form of the PRLR”.
